Data on 21 compounds can be found in patent publication US8569339B2, “Soluble guanylate cyclase activators” (Boehringer Ingelheim International GmbH, priority 2011, dated 2013).

Data set [1] deals with T1, Recombinant human soluble guanylate cyclase (sGC) (Homo sapiens, UniProt Q02153).
T1 construct: histidine tag (C); made in house; host or cells: Sf9 insect cells (baculovirus coinfection)
As to the kind of experiment: Molecular assay: activation of heme-free sGC, cGMP detection (CisBio kit). Type of data set: biochemical. The conditions noted are these: 300 pM heme-free sGC, 37° C., 60 minutes, cGMP formation. On the procedure:
The compounds of the invention may be evaluated in the following molecular assay:
Recombinant human soluble guanylate cyclase (sGC) is purified from Sf9 insect cells coinfected with baculoviruses expressing the alpha 1 or beta 1 subunit of sGC, both with a C-terminal histidine tag. Heme-free sGC is prepared by treating cell lysate with a final concentration of 0.5% Tween 20 prior to purification on a nickel affinity column.
sGC catalyzes the conversion of guanosine-5′-triphosphate (GTP) to cyclic guanosine monophosphate (cGMP). The activity of sGC is measured in vitro using the commercially available CisBio cGMP detection kit (catalog #62GM2PEB) in a 384 well format. In brief, 300 pM heme-free sGC is incubated in reaction buffer (50 mM MOPS pH 6.8, 0.2 N KOH, 50 mM NaCl, 2 mM MgCl2, 0.1% BSA, 1.25 mM IBMX, 0.25 mM TCEP, 50 nM GTP) in the presence or absence of dilutions of test compounds diluted in DMSO (final concentration of 1%) in a volume of 10 microL at 37° C. for 60 minutes. Undiluted reaction products or an 80-fold dilution of reaction products (10 microL of either) prepared in reaction buffer containing 0.2 mM TCEP and 10 mM EDTA is mixed with 5 microL of d2-cGMP plus 5 microL of Eu^3+cryptate-labeled anti-cGMP, each diluted in buffer containing 0.1 M KPO4 pH 7.5, 0.4 M KF, 20 mM EDTA, 0.2% BSA. After a one hour incubation at room temperature in the dark, the mixtures are quantified on an EnVision plate reader (PerkinElmer) according to manufacturer instructions (laser excitation 337 nm, emission 620 and 665 nm). The ratio at each compound concentration is converted to nM cGMP using the linear portion of a calibration curve. Log compound concentration is plotted against combined undiluted and diluted nM cGMP values to determine the EC50 for each curve.
Representative compounds of the present invention were tested for activity in the above assay. Preferred compounds have an IC50<5,000 nM and more preferred compounds have an IC50<100 nM in this assay.

Data set [2] is described as follows: Assessment of solubility (HT solubility, pION, UV). The format is physicochemical. The note with it: incubated 16-19 hours, 1.0% DMSO, 100 uM; for solubility kinetic: pH 4.5 buffer (pION system solution), pH 4.5, aqueous buffer, kinetic from dmso stock, pH 4.5 buffer, read-out: Sol pH 4.5; for Sol pH 7.4: pH 7.4 buffer. On the procedure: Solubility is measured by the following method.
DMSO stock samples at 10 mM conc are prepared. […] The samples are pierced and 100 ul of thawed samples are transferred into the PCR plate for analysis. Each sample is run in duplicate at each pH (pH 4.5 and 7.4). Up to 95 samples can be run in replicate at 2 pH's+1 DMSO (blank).
2. Preparation of pH 4.5 and 7.4 buffers:
pH 4.5 buffer: To 12.5 of system solution (pION) qs to 500 mL of distilled water (pH 2.85-2.90); adjust the pH to pH 4.5 with 0.5 N NaOH.
pH 7.4 buffer: To 12.5 of system solution (pION) qs to 500 mL of distilled water (pH 2.85-2.90); adjust the pH to pH 7.4 with 0.5N NaOH.
Preparation of UV blank plate:
75 ul of buffer (pH 7.4 or pH 4.5) is added to UV plate followed by addition of […] of N-propanol. The solution is mixed and the blank spectrum is read using spectrophotometer.
Preparation of Reference UV plate:
10 ul of each stock sample (including DMSO control) is added to 190 ul of N-propanol to prepare the reference stock plate. Reference stock samples are mixed and 5 ul of each stock sample is added to UV blank plate after it is read spectrophotometrically. The reference stock sample is mixed with blank solution in UV plate and the reference spectrum is read using UV spectrophotometer.
Preparation of sample for incubation:
Solubility at pH 7.4: 6 ul of each stock sample (including DMSO control) is added to the storage plate containing 600 ul of pH 7.4 buffer, mixed and incubated for 16-19 hours. The plate is sealed well during the incubation process. The DMSO content in the sample is 1.0%. The concn in deep well plates is 100 uM
6 ul of each stock sample (including DMSO control) is added to the deep well plate containing 600 ul of pH 4.5 buffer, mixed and incubated for 16-19 hours. The plate is sealed well during the incubation process. The DMSO content in the sample is 1.0%. The concn in deep well plates is 100 uM
Preparation of sample UV plate:
At the end of the incubation period, 100 uL of sample from the storage plate is vacuum filtered using a filter plate. This step wets the filters and the filtrate is discarded. Another 200 ul of the sample from the deep well plate is vacuum filtered using the same filter block but a clean filter plate. 75 ul of the filtrate from the filter plate is transferred to a UV sample plate. 75 ul of N-propanol is added to this UV plate. The solution is mixed and the spectrum is read using the UV spectrophotometer.
The spectra collected for blank, reference and sample from 250-498 nm is analyzed using pION software. If the sample precipitates out, the solubility is reported as XX μg/ml. If there is no precipitation and the sample is soluble, solubility is reported as […] (YY being the initial concentration of the compound in the sample).

pEC50: −log10 of the molar value. ≈ marks a conversion by molar mass, not a printed value.

T1 sequence (Q02108 whole entry partner): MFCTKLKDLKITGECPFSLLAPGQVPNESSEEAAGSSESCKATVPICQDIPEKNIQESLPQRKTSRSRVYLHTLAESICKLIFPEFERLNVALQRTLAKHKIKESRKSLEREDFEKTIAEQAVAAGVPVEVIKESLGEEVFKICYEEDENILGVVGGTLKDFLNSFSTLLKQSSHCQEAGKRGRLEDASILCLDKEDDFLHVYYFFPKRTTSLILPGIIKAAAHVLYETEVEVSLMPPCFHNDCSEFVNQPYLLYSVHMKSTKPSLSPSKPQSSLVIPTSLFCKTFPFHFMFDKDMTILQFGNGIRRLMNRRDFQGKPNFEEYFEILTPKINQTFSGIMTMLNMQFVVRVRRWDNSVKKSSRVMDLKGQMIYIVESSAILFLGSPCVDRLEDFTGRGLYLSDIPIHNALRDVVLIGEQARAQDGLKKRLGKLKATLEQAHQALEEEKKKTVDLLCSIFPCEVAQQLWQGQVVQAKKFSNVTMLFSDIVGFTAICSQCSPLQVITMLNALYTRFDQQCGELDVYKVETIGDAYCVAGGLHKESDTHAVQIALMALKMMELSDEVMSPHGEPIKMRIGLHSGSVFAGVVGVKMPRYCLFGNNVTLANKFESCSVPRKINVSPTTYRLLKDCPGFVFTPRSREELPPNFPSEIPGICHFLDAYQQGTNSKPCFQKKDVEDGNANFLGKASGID
T1 sequence (Q02153 whole entry): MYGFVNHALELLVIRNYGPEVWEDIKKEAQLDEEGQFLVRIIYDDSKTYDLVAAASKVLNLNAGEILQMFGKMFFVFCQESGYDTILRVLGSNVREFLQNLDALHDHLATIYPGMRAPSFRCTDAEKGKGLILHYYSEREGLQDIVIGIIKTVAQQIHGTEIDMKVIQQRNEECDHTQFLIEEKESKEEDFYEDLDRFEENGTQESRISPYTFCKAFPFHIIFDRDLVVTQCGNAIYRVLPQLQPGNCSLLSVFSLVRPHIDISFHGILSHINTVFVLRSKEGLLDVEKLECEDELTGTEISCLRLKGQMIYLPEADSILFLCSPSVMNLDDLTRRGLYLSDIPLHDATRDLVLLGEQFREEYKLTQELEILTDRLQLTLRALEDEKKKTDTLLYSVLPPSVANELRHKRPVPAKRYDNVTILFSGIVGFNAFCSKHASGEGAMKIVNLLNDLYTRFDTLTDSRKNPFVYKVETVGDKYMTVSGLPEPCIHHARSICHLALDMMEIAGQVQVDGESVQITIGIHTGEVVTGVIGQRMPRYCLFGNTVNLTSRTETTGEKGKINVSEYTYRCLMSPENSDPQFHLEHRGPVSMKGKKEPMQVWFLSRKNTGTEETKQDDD

On to `Cc1ccc(OCc2ccc3c(c2C)CCN(C)C3)c(-c2cccc(-c3ncc(C(=O)O)n3C)n2)c1` [Compound 48, 2-{6-[2-(2,5-dimethyl-1,2,3,4-tetrahydroisoquinolin-6-ylmethoxy)-5-methylphenyl]pyridin-2-yl}-3-methyl-3H-imidazole-4-carboxylic acid], for which the pEC50 in data set [1] was 6.19. Besides, in data set [2], the solubility kinetic stood at 5.1 µg/mL (≈ 10.6 µM) and the “Sol pH 7.4” value came out at 1.9 μg/mL.

In the case of `Cc1ccc(OCc2ccc3c(c2)CCN(Cc2nc(C)cs2)C3)c(-c2cccc(-c3csc(C(=O)O)c3C)n2)c1` [Compound 50], in data set [1], the pEC50 was 6.42. In addition, in data set [2], the solubility kinetic was determined as 13.7 µg/mL (≈ 23.5 µM) and the “Sol pH 7.4” value is given as 13.4 μg/mL.

Regarding `Cc1ccc(OCc2ccc3c(c2)CCN(CC2CCOC2)C3)c(-c2cccc(-c3csc(C(=O)O)c3C)n2)c1` (stereo not drawn) [Compound 51], the pEC50 in data set [1] is 6.47. Also, in data set [2], the solubility kinetic is 44.7 µg/mL (≈ 80.6 µM) and the “Sol pH 7.4” value turned out to be 35.9 μg/mL.

For `Cc1ccc(OCc2ccc3c(c2)CN(C)CC3)c(-c2cccc(-n3ncc(C(=O)O)c3C(F)(F)F)n2)c1` [Compound 52], in data set [1], the pEC50 was 6.26. For the same compound, in data set [2], the solubility kinetic was > 63 µg/mL and the “Sol pH 7.4” value stood at 42.1 μg/mL.

In the case of `Cc1ccc(OCc2ccc3c(c2C)CCN(C2CCOC2)C3)c(-c2cccc(-c3csc(C(=O)O)c3C)n2)c1` (stereo not drawn) [Compound 53], in data set [1], the pEC50 is 7.33. Besides, in data set [2], the solubility kinetic is 40.1 µg/mL (≈ 72.3 µM) and the “Sol pH 7.4” value amounted to 51.4 μg/mL.

For `Cc1ccc(OCc2ccc3c(c2C)CCN(C2CCOC2)C3)c(-c2cccc(-c3ncc(C(=O)O)n3C)n2)c1` (stereo not drawn) [Compound 54], the pEC50 in data set [1] is 6.78. In data set [2], the solubility kinetic was > 76 µg/mL and the “Sol pH 7.4” value was 32.6 μg/mL.

For the compound `Cc1cccc(-c2cccc(-n3cnc(C(=O)O)c3C)n2)c1OCc1ccc2c(c1C)CCN(C1CCOC1)C2` (stereo not drawn) [Compound 55], the pEC50 in data set [1] was 7.36. In data set [2], the solubility kinetic is > 63 µg/mL and the “Sol pH 7.4” value is >63 μg/mL.

As to `Cc1cccc(-c2cccc(-n3cnc(C(=O)O)c3C)n2)c1OCc1ccc2c(c1C)CCN(Cc1ccccn1)C2` [Compound 56], the pEC50 in data set [1] is 7.51. Also, in data set [2], the solubility kinetic was > 65 µg/mL and the “Sol pH 7.4” value is reported as >65 μg/mL.

Take `Cc1cccc(-c2cccc(-n3cnc(C(=O)O)c3C)n2)c1OCc1ccc2c(c1)CCN(C1CCOCC1)C2` [Compound 57, 5-methyl-1-[6-[3-methyl-2-[(2-tetrahydropyran-4-yl-3,4-dihydro-1H-isoquinolin-6-yl)methoxy]phenyl]-2-pyridyl]imidazole-4-carboxylic acid]: the pEC50 in data set [1] is 5.96. Moreover, in data set [2], the solubility kinetic is > 78 µg/mL and the “Sol pH 7.4” value is >78 μg/mL.

On to `Cc1ccc(OCc2ccc3c(c2)CCN(C2CCOCC2)C3)c(-c2cccc(-n3cnc(C(=O)O)c3C)n2)c1` [Compound 58], for which the negative logarithm of the EC50 (pEC50) in data set [1] is 5.59. Also, in data set [2], the solubility kinetic is > 78 µg/mL and the “Sol pH 7.4” value was >78 μg/mL.

Turning to `Cc1cccc(-c2cccc(-c3nc(C)c(C(=O)O)s3)n2)c1OCc1ccc2c(c1)CCN(C1CCOCC1)C2` [Compound 59, 4-methyl-2-[6-[3-methyl-2-[(2-tetrahydropyran-4-yl-3,4-dihydro-1H-isoquinolin-6-yl)methoxy]phenyl]-2-pyridyl]thiazole-5-carboxylic acid], the pEC50 in data set [1] was 5.38. Further, in data set [2], the solubility kinetic is > 110 µg/mL and the “Sol pH 7.4” value is >110 μg/mL.

`Cc1cccc(-c2cccc(-c3csc(C(=O)O)c3C)n2)c1OCc1ccc2c(c1)CCN(C1CCOCC1)C2` [Compound 60]: the pEC50 in data set [1] was 7.72. In addition, in data set [2], the solubility kinetic is > 64 µg/mL and the “Sol pH 7.4” value is listed as >64 μg/mL.

In the case of `Cn1c(C(=O)O)cnc1-c1cccc(-c2cccc(C(F)(F)F)c2OCc2ccc3c(c2)CCN(C2CCOCC2)C3)n1` [Compound 61], the pEC50 in data set [1] was 7.12. Moreover, in data set [2], the solubility kinetic was > 110 µg/mL and the “Sol pH 7.4” value is recorded as >110 μg/mL.

With `Cc1ccc(OCc2cc3c(cc2C)CN(C)CC3)c(-c2cccc(-n3ncc(C(=O)O)c3C(F)(F)F)n2)c1` [Compound 62, 1-[6-[2-[(2,7-dimethyl-3,4-dihydro-1H-isoquinolin-6-yl)methoxy]-5-methylphenyl]-2-pyridyl]-5-(trifluoromethyl)pyrazole-4-carboxylic acid], the pEC50 in data set [1] was 6.36. Besides, in data set [2], the solubility kinetic was 2.8 µg/mL (≈ 5.22 µM) and the “Sol pH 7.4” value is 1.2 μg/mL.

For `CCn1c(C(=O)O)cnc1-c1cccc(-c2cccc(C)c2OCc2ccc3c(c2)CCN(C2CCOCC2)C3)n1` [Compound 63, 3-ethyl-2-[6-[3-methyl-2-[(2-tetrahydropyran-4-yl-3,4-dihydro-1H-isoquinolin-6-yl)methoxy]phenyl]-2-pyridyl]imidazole-4-carboxylic acid], the pEC50 in data set [1] was 7.85. Also, in data set [2], the solubility kinetic is > 78 µg/mL and the “Sol pH 7.4” value is listed as 54.2 μg/mL.

For the compound `Cc1cccc(-c2cccc(-n3ncc(C(=O)O)c3C)n2)c1OCc1ccc2c(c1)CCN(C1CCOCC1)C2` [Compound 64], in data set [1], the pEC50 was 7.68. Moreover, in data set [2], the solubility kinetic was > 78 µg/mL and the “Sol pH 7.4” value is reported as >78 μg/mL.

With `Cc1ccc(OCc2ccc3c(c2)CCN(C2CCOCC2)C3)c(-c2cccc(-n3ncc(C(=O)O)c3C)n2)c1` [Compound 65], the pEC50 in data set [1] was 6.87. In data set [2], the solubility kinetic is > 53 µg/mL and the “Sol pH 7.4” value was >53 μg/mL.

Take `Cc1ccc(OCc2ccc3c(c2)CCN(C2CCOCC2)C3)c(-c2cccc(-c3ncc(C(=O)O)n3C)n2)c1` [Compound 66]: the pEC50 in data set [1] was 5.74. Moreover, in data set [2], the solubility kinetic was > 53 µg/mL and the “Sol pH 7.4” value is >53 μg/mL.

For `Cc1cccc(-c2cccc(-c3ncc(C(=O)O)n3C)n2)c1OCc1ccc2c(c1)CCN(C1CCOCC1)C2` [Compound 67], the pEC50 in data set [1] was 6.63. Further, in data set [2], the solubility kinetic was > 78 µg/mL and the “Sol pH 7.4” value worked out at 54.2 μg/mL.

In the case of `Cc1ncc(CN2CCc3cc(COc4c(C)cccc4-c4cccc(-c5ncc(C(=O)O)n5C)n4)ccc3C2)s1` [Compound 70], the pEC50 in data set [1] is 7.43. In addition, in data set [2], the solubility kinetic was > 66 µg/mL and the “Sol pH 7.4” value is listed as >66 μg/mL.

Regarding `CCn1cc(CN2CCc3cc(COc4c(C)cccc4-c4cccc(-c5ncc(C(=O)O)n5C)n4)ccc3C2)cn1` [Compound 71], in data set [1], the pEC50 is 6.80. Further, in data set [2], the solubility kinetic is > 67 µg/mL and the “Sol pH 7.4” value is >67 μg/mL.

The pEC50 is the negative decadic logarithm of the EC50, by convention in mol/L.
